The nature of the data set: Supersaturation potential of a triclosan solution (calculated from solubilities). Format: physicochemical. Particulars: skin pH e.g. pH 5.5; 200ppm triclosan solution at pH 10 as starting composition. The protocol: The supersaturation potential of a solution at pH 10 containing 200ppm triclosan was calculated by dividing the concentration of triclosan in that solution by the concentration of triclosan in the solutions at lower pHs.

Each structure is given as a SMILES string.

As to `Oc1cc(Cl)ccc1Oc1ccc(Cl)cc1Cl` [triclosan], the “degree of supersaturation achievable at a skin pH” value was 30 X.

(Values after EP0862417B1, “PHARMACEUTICAL COMPOSITION FOR TOPICAL APPLICATION” (Reckitt Benckiser Healthcare (UK) Limited, priority 1995, dated 1997).)
